Source: ChEMBL document CHEMBL1133432, “Probes for imidazoline binding sites: synthesis and evaluation of a selective, irreversible I2 ligand” (Bioorg Med Chem Lett, 2000)

Columns and labels:
[1] = target: T1, Adrenergic receptor alpha-2 (Rattus norvegicus, UniProt P22086+P19328+P22909); experiment: Inhibition of 1 nM [3H]RX-821002 binding to rat whole brain membrane Alpha-2 adrenergic receptors
T1 sequence (P22086 whole entry): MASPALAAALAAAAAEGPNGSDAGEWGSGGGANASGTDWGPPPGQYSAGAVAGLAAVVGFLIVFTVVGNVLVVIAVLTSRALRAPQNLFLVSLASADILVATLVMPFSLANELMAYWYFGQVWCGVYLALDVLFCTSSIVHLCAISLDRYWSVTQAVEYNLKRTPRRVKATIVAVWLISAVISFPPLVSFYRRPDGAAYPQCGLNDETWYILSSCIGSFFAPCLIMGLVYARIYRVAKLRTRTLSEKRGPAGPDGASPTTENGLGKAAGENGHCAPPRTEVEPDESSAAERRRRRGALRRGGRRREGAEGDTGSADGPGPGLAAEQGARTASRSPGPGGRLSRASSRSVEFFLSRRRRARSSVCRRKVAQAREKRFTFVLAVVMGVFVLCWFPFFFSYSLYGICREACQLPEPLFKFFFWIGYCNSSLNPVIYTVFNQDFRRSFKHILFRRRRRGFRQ
T1 sequence (P19328 whole entry): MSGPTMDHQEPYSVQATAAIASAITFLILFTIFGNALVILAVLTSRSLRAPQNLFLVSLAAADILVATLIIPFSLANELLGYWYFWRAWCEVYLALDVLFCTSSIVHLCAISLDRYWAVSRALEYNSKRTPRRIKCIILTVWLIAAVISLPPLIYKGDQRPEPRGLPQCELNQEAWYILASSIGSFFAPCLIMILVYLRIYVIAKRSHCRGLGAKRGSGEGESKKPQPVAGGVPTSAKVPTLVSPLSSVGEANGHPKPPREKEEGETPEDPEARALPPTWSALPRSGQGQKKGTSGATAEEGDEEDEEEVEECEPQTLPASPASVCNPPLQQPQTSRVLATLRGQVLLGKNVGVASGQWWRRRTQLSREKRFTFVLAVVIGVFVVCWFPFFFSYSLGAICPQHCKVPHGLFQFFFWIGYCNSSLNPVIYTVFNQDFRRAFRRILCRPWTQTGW
T1 sequence (P22909 whole entry): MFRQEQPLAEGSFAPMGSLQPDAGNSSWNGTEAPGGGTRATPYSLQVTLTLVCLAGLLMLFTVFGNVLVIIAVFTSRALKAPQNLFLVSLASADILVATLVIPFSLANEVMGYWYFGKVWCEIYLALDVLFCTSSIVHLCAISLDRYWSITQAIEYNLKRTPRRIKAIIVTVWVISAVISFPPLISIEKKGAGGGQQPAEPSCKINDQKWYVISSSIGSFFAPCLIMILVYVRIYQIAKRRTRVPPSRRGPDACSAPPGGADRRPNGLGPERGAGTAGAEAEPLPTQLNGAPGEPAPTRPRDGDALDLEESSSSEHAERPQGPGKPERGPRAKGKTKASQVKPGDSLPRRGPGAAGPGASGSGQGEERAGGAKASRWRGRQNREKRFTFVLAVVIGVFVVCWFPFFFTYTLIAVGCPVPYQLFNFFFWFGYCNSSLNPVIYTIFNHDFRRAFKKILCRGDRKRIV

[2] = Inhibition of 1 nM [3H]2-BFI binding to rat whole brain membrane imidazoline receptor I-2

Ki [1]	Ki [2]	Structure (SMILES)
16300 nM	2.3 nM	N#CSc1ccc2oc(C3=NCCN3)cc2c1
1900 nM	1.7 nM	c1ccc2oc(C3=NCCN3)cc2c1
